Columns and labels:
human OA chondrocytes [1] = assay: IL-1β-induced nitric oxide (NO) generation in human OA chondrocytes; assay type: cell-based; conditions: for concentration at which significant inhibition of IL-1β-induced NO release was observed when used alone: chondrocytes, previously demonstrated
Description: The effectiveness of NR on inhibition of IL-1β-induced nitric oxide (NO) generation in human chondrocytes was influenced by the presence or absence of serum (which contains PNP) in the cell culture media. Human OA chondrocytes (donor OA278) were treated with a PNP inhibitor Ulodesine (5 uM) for 2 h and then NR (10 or 100 uM) for 1 h, followed by IL1β (2 ng/ml) for 24 h under serum (10% FCS)-present (FIG. 6A) or serum-free condition (FIG. 6B). The conditioned media was used for measuring generation of nitric oxide (NO), a known contributor of cartilage degradation.
Effectiveness of combination of low-dose of NAD precursors (NR or NRH) with a PNP inhibitor Ulodesine on inhibition of IL-1β-induced nitric oxide (NO) generation in human chondrocytes under the serum-presence condition. Human OA chondrocytes from donor OA277 (FIG. 7A) or OA279 (FIG. 7B) were treated with Ulodesine (5 uM) for 2 h and then NR or NRH at 10 uM for 1 h, followed by IL1p (2 ng/ml) for 24 h under serum-present (10% FCS) condition. The conditioned media was used for measuring NO generation.

[2] = system: MSU crystal-induced inflammation; assay: MSU crystal-induced inflammation in the gout-like air pouch model in mice; assay type: in vivo; conditions: via gavage, 400 mg/kg/day
Description: It was observed that blood NAD levels decrease, correlated with increase in CD38 expression in peripheral blood mononuclear cells in gout patients compared to healthy subjects. […] The effect of oral supplementation of NR or NRH (via gavage, 400 mg/kg/day) on MSU crystal-induced inflammation in the gout-like air pouch model in mice was tested (FIG. 8). The development of the air pouch leads to a pouch lining tissue that is morphologically like the synovium in joints, in which injection of sterile-filtered air under the skin on the back of the test animal provides an environment that is used to simulate the effects of diseases such as gout. […] Given the potential of Ulodesine in lowering uric acid and of NR or NRH in limiting MSU crystal-induced inflammation, combination of NR or NRH with Ulodesine, or other PNP inhibitors, presents a novel therapeutic approach for gout.

[3] = metabolized by PNP; cited from earlier work
[4] = cited from earlier work
human OA chondrocytes [5] = assay: Cellular NAD, NADH and NAD/NADH ratio in human OA chondrocytes; assay type: cell-based
Source text: (§1) In this study, it was observed that CD38 expression is increased in human knee cartilage of both osteoarthritis (OA) and aged donors (FIGS. 1A and 1B), in primary human knee OA chondrocytes (FIG. 1C) and in chondrocytes stimulated with IL-1, a pro-inflammatory cytokine implicated to play an important role in OA pathogenesis (FIG. 1E). […] In addition, NRH prevented IL-1β-induced CD38 expression at both mRNA and protein levels (FIGS. 2D and 2E) and decline of NAD levels and NAD/NADH ratio (FIGS. 2F and 2G). […] It was observed that NRH has higher potency than NR to inhibit IL-1β-induced catabolic responses in chondrocytes, evidenced by that similar efficacy was achieved by NRH used at concentration 10 times less than NR (data not shown).

CD38 = assay: IL-1β-induced CD38 expression in chondrocytes; assay type: cell-based, human; conditions: mRNA and protein levels
Source text: as §1

MMP3 = assay: IL-1β-induced MMP3 expression at cellular and tissue levels; assay type: cell-based, human; conditions: cellular (mRNA and protein) levels and tissue levels
Source text: as §1

MMP13 = assay: IL-1β-induced MMP13 expression at cellular and tissue levels; assay type: cell-based, human; conditions: cellular (mRNA and protein) levels and tissue levels
Source text: as §1

[6] = system: cartilage matrix degradation; assay: IL-1β-induced release of matrix protein glycosaminoglycan (GAG); assay type: cell-based
Source text: as §1

chondrocytes = assay: IL-1β-induced catabolic responses in chondrocytes, NRH versus NR; assay type: cell-based; conditions: inhibition of IL-1β-induced catabolic responses; data not shown
Source text: as §1

post-traumatic OA model = assay: Post-traumatic OA model (DMM surgery) in mice, oral NRH; assay type: in vivo
Description: Given that NRH is a natural NAD precursor with oral bioavailability and its ability to not only promote NAD^+ biosynthesis, but also prohibit NAD^+ degradation by inhibiting CD38, it was next tested whether oral administration of NRH limits OA development in mice using a post-traumatic OA model. Destabilization of medial meniscus (DMM) surgery was performed on the right knee of mice to cause joint injury and started NRH treatment through gavage 2 week after the surgery. Pain behaviors such as pain sensitivity and spontaneous pain were evaluated by Von Frey and static weight bearing tests, respectively, at baseline and every 2 weeks after the surgery. At 10 weeks after the surgery, mice were sacrificed, and knee OA pathological changes including cartilage degradation, synovial inflammation and osteophyte formation were assessed.

[7] = cited from earlier work; remark: listed apart in the source
gout patients = conditions: each arm: 40, 80 and 120 mg per day; 60 gout patients with baseline SU ≥8 mg/dL; cited from earlier work
PNP = PNP (Homo sapiens, UniProt P00491); conditions: cited from earlier work
[8] = 10 uM alone, serum-present (10% FCS), donors OA277, OA279
[9] = human OA chondrocytes stimulated with NRH
[10] = NRH by gavage from 2 weeks after DMM surgery, assessed at 10 weeks
[11] = at 6, 8 and 10 weeks after the surgery

PNP, sequence (P00491 whole entry): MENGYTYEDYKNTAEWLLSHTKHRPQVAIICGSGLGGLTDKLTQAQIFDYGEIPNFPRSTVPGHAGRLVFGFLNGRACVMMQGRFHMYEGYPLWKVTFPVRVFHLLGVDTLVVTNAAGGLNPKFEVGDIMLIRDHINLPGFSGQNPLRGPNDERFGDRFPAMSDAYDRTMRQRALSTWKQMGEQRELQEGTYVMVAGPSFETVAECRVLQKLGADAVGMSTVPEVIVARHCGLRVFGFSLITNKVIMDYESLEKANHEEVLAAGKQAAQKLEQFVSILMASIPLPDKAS

SMILES: NC(=O)c1ccc[n+]([C@@H]2O[C@H](CO)[C@@H](O)[C@H]2O)c1 [NR, nicotinamide riboside]
- effect on IL-1β-induced NO release (human OA chondrocytes [1]; [8]): little effect
- effect on IL-1β-induced NO release (human OA chondrocytes [1]; NR 10 and 100 uM, serum-free, donor OA278): robust inhibition
- effect on IL-1β-induced NO release (human OA chondrocytes [1]; NR 10 and 100 uM, serum-present (10% FCS), donor OA278): little effect
- concentration at which significant inhibition of IL-1β-induced NO release was observed when used alone (human OA chondrocytes [1]): 200 µM
- MSU crystal-induced infiltrating inflammatory cells [2]: significantly inhibited
- stability in plasma (degradation to NAM) [3]: rapidly degraded
- tolerability and safety ([4]; chronic oral supplementation, human): well-tolerated, safe
- human NAD+ metabolism ([4]; chronic oral supplementation): boosted
- blood pressure and exercise performance ([4]; dietary supplementation, elderly individuals): only mild benefits
- glucose tolerance and β-cell secretory capacity ([4]; nondiabetic men with obesity): no significant impact
- skeletal muscle mitochondria ([4]; obese and insulin-resistant men): no significant impact

SMILES: NC(=O)C1=CN([C@@H]2O[C@H](CO)[C@@H](O)[C@H]2O)C=CC1 [NRH, dihydronicotinamide riboside]
- IL-1β-induced decline of NAD levels (human OA chondrocytes [5]; IL-1β stimulation): prevented
- IL-1β-induced decline of NAD/NADH ratio (human OA chondrocytes [5]; IL-1β stimulation): prevented
- NAD/NADH ratio (human OA chondrocytes [5]; [9]): dramatically increased
- cellular levels of NAD (human OA chondrocytes [5]; [9]): dramatically increased
- cellular levels of NADH (human OA chondrocytes [5]; [9]): dramatically increased
- IL-1β-induced CD38 expression (CD38): prevented
- IL-1β-induced expression of MMP3 (MMP3): completely attenuated
- IL-1β-induced expression of MMP13 (MMP13): completely attenuated
- IL-1β-induced release of glycosaminoglycan (GAG) [6]: significantly inhibited
- concentration of NRH relative to NR giving similar efficacy (chondrocytes): 10 times less
- cartilage damage (post-traumatic OA model; [10]): significantly reduced
- osteophyte size and maturity (post-traumatic OA model; [10]): significantly reduced
- synovial inflammation (post-traumatic OA model; [10]): significantly reduced
- paw withdraw threshold (Von Frey) (post-traumatic OA model; [11]): significantly increased
- weight bearing capacity (post-traumatic OA model; [11]): significantly increased
- effect on IL-1β-induced NO release (human OA chondrocytes [1]; [8]): little effect
- concentration at which significant inhibition of IL-1β-induced NO release was observed when used alone (human OA chondrocytes [1]): 200 µM
- MSU crystal-induced infiltrating inflammatory cells [2]: significantly inhibited
- NRH in circulation after NRH treatment ([7]; mice): detectable
- NR in circulation after NRH treatment versus after NR administration ([7]; mouse, in vivo): much higher levels
- stability compared to NR ([7]; mouse, in vivo): more stable

SMILES: O=c1[nH]cnc2c(CN3C[C@H](CO)[C@@H](O)C3)c[nH]c12 [Ulodesine]
- participants achieving the target SU of less than 6 mg/dL (gout patients): approximately one third
- IC50 for PNP (PNP): in the nM concentration range
